Reference: patent US20230338328A1, “KOJIC ACID DERIVATIVE AS SELECTIVE INHIBITOR OF MITOSIS IN COLORECTAL AND GLIOBLASTOMA CANCER CELLS” (UNIVERSITA' DEGLI STUDI DI CAGLIARI, priority 2020, published 2023)
Entries after “also recorded” stand apart in the source; their conditions may differ.

How the values were obtained:
[1] = tested on: embryonic kidney cells (293T cells); assay: Mitosis block / morphology of treated cell cultures, 293T; type: cell-based, human; conditions: for morphological changes characteristic of block in mitosis (M phase arrest): 293T normal cells, FIG. 1: L1 0.74 mM, Colcemid 5.41 mM
Excerpt: (§1) The commercial embryonic cell line of the human kidney 293T (Banca Biologica and Cell Factory—IRCCS AOU San Martino—IST Genova, catalog code ICLC HTL03003), that of murine macrophages J774 and RAW (ICLC ATL98011 and ATL02001), that of Glioblastoma del human brain T98G (ATCC® CRL-1690™) and that of human epithelial adenocarcinoma Caco-2 (ICL HTL97023), were provided by the National Institute for Research on Cancer c/o CBA (ICLC, Genoa). A minimal essential cell culture medium, MEM (EBSS), with 10% fetal bovine serum (FBS), 100 units per mL penicillin, […] streptomycin, 2 mM glutamine and 1% not essential amino acids was used. To reach the experimental conditions, the confluent cells were isolated using trypsin/EDTA. The cells of the different cell lines (2-3×10^4 cells per cm^2) were seeded in 35 mm cell discs and then incubated at 37° C. in 5% CO2. After 24 hours of growth in complete culture medium, the cells were cultured according to the different experimental conditions foreseen by the project.

[2] = tested on: T98G (human glioblastoma) cells; assay: Mitosis block / morphology of treated cell cultures, T98G; type: cell-based; conditions: for morphological changes characteristic of block in mitosis (M phase arrest): T98G, 24 hours of culture, FIG. 1: L1 0.74 mM, Colcemid 5.41 mM; for antiproliferative activity (through the inhibition of mitosis): T98G tumor cells
Excerpt: as §1

RAW macrophages = assay: Mitosis block / morphology of treated cell cultures, RAW; type: cell-based, murine; conditions: RAW normal cells; FIG. 1: L1 0.74 mM, Colcemid 5.41 mM
Excerpt: as §1

[3] = tested on: Caco2 (colon adenocarcinoma) cells; assay: Mitosis block / morphology of treated cell cultures, CaCo2; conditions: for morphological changes characteristic of block in mitosis (M phase arrest): CaCo2, 24 hours of culture, FIG. 1: L1 0.74 mM, Colcemid 5.41 mM; for antiproliferative activity (through the inhibition of mitosis): CaCo2 tumor cells
Excerpt: as §1

[4] = tested on: Caco-2 human epithelial adenocarcinoma cells
Experimental: Treated and untreated control samples of Caco-2 human epithelial adenocarcinoma cells were fixed for 2 hours in 1% paraformaldehyde (para) and 1.25% glutaraldehyde solution in 0.1 M, pH 7.4 sodium cacodylate buffer. After rinsing in the same buffer, the samples were post-fixed in 1% osmium tetroxide for 1 hour and stained in 0.25% uranyl acetate overnight at 4° C.
The cell cultures were dehydrated in increasing scale of ethanol and xylene, subsequently, to proceed with the embedding in Embed 812 resin, the samples were transferred in inclusion flat molds in an oven at 60° C. for the 24 hours necessary for the polymerization of the resin. From the resulting blocks, 1 μm thick sections were obtained and then stained with toluidine blue for preliminary analysis by light microscopy. Finally, thin sections of 60-90 nm (ultramicrotome 8800 LKB), contrasted with […] and bismuth subnitrate, were observed and photographed with a transmission electron microscope (model JEOL 1400 plus, Tokyo, Japan) operating at 80 kV.

CaCo2 cells = tested on: CaCo2 cells
Experimental: A possible cytotoxic effect (ID50) of the L1 molecule was evaluated in CaCo2 cells by viable staining with trypan blue under different experimental conditions. Cell number (FIG. 3) and viability (FIG. 4) were assessed using the LunaFL cell counter (www.logosbio.com) or by direct observation under the light microscope. Briefly, the cell samples mixed and diluted 1:1 with a 0.2% Trypan Blue solution were counted, after 1-3 minutes, in the counting chamber slide present in the analyzer of the Luna automatic system. […] To obtain an accurate measurement of cell viability, the cell count was repeated at least three times in at least three experiments under the same experimental conditions. The observation under the optical microscope (FIG. 5) was made by adding the Trypan Blue solution to the cells to be observed for a few minutes. The percentage of live cells (trypan blue negative) compared to dead ones (trypan blue positive) in each experimental culture condition was then calculated.

macrophages (J774 cells) = tested on: macrophages (J774 cells)
Excerpt: as §1

[5] = tested on: BAX, BCL2, OH-1, PRDX gene expression in 293T cells; conditions: 24 hours, L1 0.74 mM (FIG. 6)
Experimental: (§2) Coding for a protein that may play a role in the control of cell proliferation and in tumor development and progression.
(§3) The cells, after treatment, were immediately frozen and stored at −80° C. until RNA extraction. The RNA was extracted with the NorDiag ARROW RNA Kit using the company's automated tool. Actin was used as a reference gene. Real-time reverse transcriptase PCR was performed using the Roche Light Cycler System and the SYBR Green I Amplification Kit (Roche Diagnostics). The primers used for the beta actin control gene are as follows: b-actF=5′-[…]-3′, b-actR=5′-[…]-3′, e (Gen-Bank n. NM_001101). While the following oligo nucleotides were used for the genes under consideration:
(§4) The final reaction volume of 20 μl contained: a final concentration of 3 mM MgCl2, […] of each primer and 2 μl of RNA extract. The real time reaction program includes: an initial reverse transcription at 55° C. for 10 minutes, a denaturation cycle at 95° C. for 30 seconds followed by 35 cycles at 95° for 5 seconds, 53° C. for 10 seconds and 72° C. for 12 seconds, the fluorescence reading was performed in the 72° C. phase
(§5) The relative gene expression was analyzed using the 2-AACT method [KJ Livak and TD Schmittgen, Analysis of relative gene expression data by Quantitative real-time PCR and 2-AACT method, methods, 2001, 25, 402-408]. Three distinct experimental replicates were performed for each analysis and the quantitative data were expressed as mean. The experiment was repeated if the dispersion of the values of the threshold cycles, compared to the mean, was too high. A standard deviation for each replicate equal to ±1 cut-off cycle was accepted.

[6] = tested on: BAX, BCL2, OH-1, PRDX gene expression in CaCo2 cells; conditions: 24 hours, L1 0.74 mM (FIG. 6)
Experimental: as §2, §3, §4, §5

[7] = Caco2, treatment continued for up to 72 hours

CN[C@H]1CCc2cc(OC)c(OC)c(OC)c2-c2ccc(OC)c(=O)cc21 [Colcemid, desacetylmethylcolchicine, reference compound]
morphological changes characteristic of block in mitosis (M phase arrest) [1]: all cell lines respond | morphological changes characteristic of block in mitosis (M phase arrest) [2]: all cell lines respond | morphological changes characteristic of block in mitosis (M phase arrest) ([2]; listed as colcemide): all cell lines studied showed the morphological changes characteristic of blocked cells in mitosis | morphological changes characteristic of block in mitosis (M phase arrest) (RAW macrophages): all cell lines respond | morphological changes characteristic of block in mitosis (M phase arrest) [3]: all cell lines respond | morphological changes characteristic of block in mitosis (M phase arrest) ([3]; listed as colcemide): all cell lines studied showed the morphological changes characteristic of blocked cells in mitosis

O=c1cc(CNCCNCc2cc(=O)c(O)co2)occ1O [L1, 2,2′-ethane-1,2-diylbis (iminomethanediyl)This(5-hydroxy-4H-pyran-4-one)]
effect on cell division by ultrastructural analysis (SEM and TEM) ([4]; Caco2, L1 0.74 mM (FIG. 2)): acts specifically on the cell division (mitosis) process | nuclear fragmentation (microscopy) ([4]; Caco-2, L1 0.74 mM (FIG. 2A)): occasionally, cells showing fragmentation of their nuclei have been observed | cellular architecture during the interphase (TEM) ([4]; Caco-2, L1 0.74 mM (FIG. 2B)): does not appear to affect the cellular architecture of most cells | morphological changes characteristic of block in mitosis (M phase arrest) [1]: apparently normal | effect in non-tumor cell line ([1]; embryonic kidney cells (293 cells)): no effect | viability (Trypan Blue, LunaFL) (CaCo2 cells; L1 0.74 mM (FIG. 4)): comparable to that of the respective control | number of cells after repeated treatments (CaCo2 cells; repeated treatments with L1): further reduction in the number of cells | number of cells compared to those not treated (LunaFL count) (CaCo2 cells; treated for 24 hours, L1 0.74 mM (FIG. 3)): clear reduction in the number of CaCo2 cells | antiproliferative activity (through the inhibition of mitosis) [2]: showed antiproliferative activity | morphological changes characteristic of block in mitosis (M phase arrest) [2]: showed morphological changes characteristic of mitotic-blocked cells; also recorded: arrest in M phase similar to that induced by Colcemid | morphological changes characteristic of block in mitosis (M phase arrest) (RAW macrophages): apparently normal | effect in non-tumor cell line (macrophages (J774 cells)): no effect | morphological changes characteristic of block in mitosis (M phase arrest) [3]: showed morphological changes characteristic of mitotic-blocked cells; also recorded: arrest in M phase similar to that induced by Colcemid | antiproliferative activity (through the inhibition of mitosis) [3]: showed antiproliferative activity | concentration at which all the cells have a modified morphology ([3]; Caco2): 2.22 mM | treatment time after which half of the Caco2 cells were blocked in mitosis ([3]; Caco2): 4.5 h | treatment time after which the block of all treated cells was achieved ([3]; Caco2): 24 h | minimum concentration able to induce evident morphological changes ([3]; Caco2, after 24 hours of treatment): 0.069 mM | reduction in the number of cells versus control sample (on average) ([3]; Caco2, control = same cell line cultured without L1): 4 times lower | cell fate on continued treatment [3, 7]: begin to die from apoptosis | reversibility of mitosis inhibition [3, 7]: irreversible | reversibility of mitosis inhibition ([3]; Caco2, treatment stopped after 24 hours, medium replaced): reversible | BAX gene expression (mRNA) [5]: increased expression | BCL2 gene expression (mRNA) [5]: increased expression | OH-1 gene expression (mRNA) [5]: increased expression | PRDX gene expression (mRNA) [5]: completely inhibiting the expression | BAX gene expression (mRNA) [6]: significantly reduces the expression | BCL2 gene expression (mRNA) [6]: significantly reduces the expression | OH-1 gene expression (mRNA) [6]: significantly reduces the expression | PRDX gene expression (mRNA) [6]: significantly reduces the expression

O=c1cc(CNCCCNCc2cc(=O)c(O)co2)occ1O [L2, 2,2′-[propane-1,3-diylbis (iminomethanediyl)]bis(5-hydroxy-4H-pyran-4-one)]
antiproliferative activity (through the inhibition of mitosis) [2]: not those (L2, L3 and L4) showed antiproliferative activity | antiproliferative activity (through the inhibition of mitosis) [3]: not those (L2, L3 and L4) showed antiproliferative activity

O=c1cc(CNCCCCNCc2cc(=O)c(O)co2)occ1O [L3, 2,2′-[butane-1,4-diylbis (iminomethanediyl)]bis(5-hydroxy-4H-pyran-4-one)]
antiproliferative activity (through the inhibition of mitosis) [2]: not those (L2, L3 and L4) showed antiproliferative activity | antiproliferative activity (through the inhibition of mitosis) [3]: not those (L2, L3 and L4) showed antiproliferative activity

O=c1cc(CNCCN(CCNCc2cc(=O)c(O)co2)CCNCc2cc(=O)c(O)co2)occ1O [L4, 6,6′,6″-(((nitrilotris(ethane-2,1-diyl))tris(azanediyl))tris(methylene))tri s(3-hydroxy-4H-pyran-4-one)]
antiproliferative activity (through the inhibition of mitosis) [2]: not those (L2, L3 and L4) showed antiproliferative activity | antiproliferative activity (through the inhibition of mitosis) [3]: not those (L2, L3 and L4) showed antiproliferative activity
